The values below come from PMC8217813, “Bridging Computational Vaccinology and Vaccine Development Through Systematic Identification, Characterization, and Downselection of Conserved and Variable Circumsporozoite Protein CD4 T Cell Epitopes From Diverse Plasmodium falciparum Strains” (Frontiers in Immunology, 2021).

Peptide text beside a SMILES is read from it.

For one experiment, the target named is T1, HLA A*2402 (Homo sapiens, UniProt P04439, D101N/D140Y/D185E/E176V/E190D/F33S/G103R/G107R/I119L/I121M/I306V/K335N/L105A/L180Q/L300P/N151K/N90K/Q86E/Q94H/R106L/R138H/R89G/T104I/T345S/V100E/W191G/Y123F).
T1 construct: Pure Protein, LLC (ran the assay)
As to the kind of experiment: In vitro class I HLA binding competition assay (fluorescence polarization). The note with it: allele A2402; cell-free competition with fluorescently labeled control peptide, fluorescence polarization at 72 hours. How it is done:
The cell-free class I HLA binding assay in use at Pure Protein, LLC allows for in vitro quantification of peptide-HLA binding affinity in a competition format. In this assay, a fluorescently labeled, high binding, control peptide is loaded onto 384-well ½-area plates along with unlabeled experimental peptides. To remove endogenous peptides and render the HLA A and B molecules receptive to binding, HLA is heated at 53°C for 15 minutes and immediately added to the assay. The mixture is then allowed to stand for three days. […] Binding of experimental peptides is expressed as the percent inhibition of the labeled control peptide (experimental fluorescence / control fluorescence, multiplied by 100). The percent inhibition values for each experimental peptide (across a range of molar concentrations) are used to calculate the concentration which inhibits 50% of the labeled control peptide’s specific binding. This value is referred to as the peptide’s IC50.
Background: Fluorescence polarisation rises when a labelled molecule tumbles more slowly, as on binding a larger partner.

In another experiment the target is T2, HLA-DRB1*0101 (Homo sapiens, UniProt P01903+P01911, A100R/D57E/F55L/F60I/F76Y/I96L/L162R/M171V/P40L/Q125E/R42F/V115G/Y59C).
T2 construct: purchased
As to the kind of experiment: In vitro class II HLA binding competition assay. The conditions noted are these: competition with fluorescent-labeled reference peptide, class II HLA monomers, 24-hours, test peptide 100,000 nM to 100 nM, time-resolved fluorescence. Here is the method:
(§1) EpiVax conducted in vitro quantification of peptide-HLA binding affinity utilizing a competition assay format per the methodology described in ([35]). Briefly, a fluorescent-labeled, high-binding reference peptide and titrating concentrations of test peptide were incubated in a 96-well plate format with limiting concentrations of class II HLA monomers in aqueous buffer for 24-hours. Post incubation, the mixtures were moved to a 96-well plate coated with anti-HLA-DR antibody to capture HLA-peptide complexes. Time-resolved fluorescence measurement of the bound labeled reference peptide complex present in each mixture were detected with a europium-linked probe via fluorescent spectrophotometry using a SpectraMax M5 system. HLA binding affinity of each test peptide was expressed as the percent inhibition of reference peptide binding. Percent inhibition values (across the test peptide titration range) were used to calculate the half maximal inhibitory concentration (IC50) of each test peptide. For these studies, test peptides were assessed using a range of final concentrations from 100,000 nM to 100 nM and all peptides were reconstituted in dimethyl sulfoxide (DMSO).

A further experiment addresses T3, HLA-DRB1*0401 (Homo sapiens, UniProt P01903+P01911, A100K/A169T/F76Y/I96L/K127E/L162R/M171V/N62H/P40V/Q125Y/R42H/S133A/S149N/S66Y/V115G/V209L/W38E).
T3 construct: purchased
The experiment can be described thus: In vitro class II HLA binding competition assay. How it is done:
as §1

The target in the next experiment is HLA-DRB1*0701 (Homo sapiens, UniProt P01903+P01911, A100R/A102G/A103Q/D57E/D86V/E43K/F76Y/K127E/L162R/M171V/P40G/Q125H/Q99D/R33Q/R42Y/R54Q/S133A/S66F/T210M/V115G/Y107V/Y59L/Y89S). The experiment can be described thus: In vitro class II HLA binding competition assay. How it is done:
as §1

The target in the next experiment is HLA-DRB1*0801 (Homo sapiens, UniProt P01903+P01911, A100R/A103L/A169T/D86S/F76Y/H45Y/I96F/K41T/L162R/M171V/P40S/Q125H/Q178H/Q39Y/Q99D/R218S/R42G/S66Y/V115G/W38E). As to the kind of experiment: In vitro class II HLA binding competition assay. The note with it: competition with fluorescent-labeled reference peptide, class II HLA monomers, 24-hours, test peptide 100,000 nM to 100 nM, time-resolved fluorescence. Here is the method:
as §1

In a further experiment the target is T4, HLA-DRB1*1101 (Homo sapiens, UniProt P01903+P01911, A100R/A169T/A87E/I96F/K41T/L162R/M171V/P40S/Q125H/Q178H/Q39Y/Q99D/R42S/S66Y/T262R/V115G/W38E).
T4 construct: purchased
The experiment can be described thus: In vitro class II HLA binding competition assay. The conditions noted are these: competition with fluorescent-labeled reference peptide, class II HLA monomers, 24-hours, test peptide 100,000 nM to 100 nM, time-resolved fluorescence. Here is the method: as §1

The target in the next experiment is HLA-DRB1*1301 (Homo sapiens, UniProt P01903+P01911, A100E/A169T/K41T/L162R/M171V/P40S/Q125H/Q178H/Q39Y/Q99D/R42S/S66N/T262R/W38E/Y61H). The experiment can be described thus: In vitro class II HLA binding competition assay. The conditions noted are these: competition with fluorescent-labeled reference peptide, class II HLA monomers, 24-hours, test peptide 100,000 nM to 100 nM, time-resolved fluorescence. How it is done:
as §1

The target in a further experiment is T5, HLA-DRB1*1501 (Homo sapiens, UniProt P01903+P01911).
T5 construct: purchased
As to the kind of experiment: In vitro class II HLA binding competition assay. How it is done:
as §1

Experiment [1] deals with CD4 T cells co-cultured with autologous DCs from PBMCs. Format: cell-based, human. The conditions noted are these: positive = Stimulation Index ≥1.5-fold above baseline, 5 µg/mL peptide.

As for `CC[C@H](C)[C@H](NC(=O)[C@@H](N)CC(C)C)C(=O)N[C@@H](CCSC)C(=O)N[C@H](C(=O)N[C@@H](CC(C)C)C(=O)N[C@@H](CO)C(=O)N[C@@H](Cc1ccccc1)C(=O)N[C@@H](CC(C)C)C(=O)N[C@@H](Cc1ccccc1)C(=O)O)C(C)C` [Cluster 387_3D7] (H-LIMVLSFLF-OH), the IC50 on HLA A*2402 came out at 19.3 µM.
On the same count and under the same terms, next, `CC[C@H](C)[C@H](NC(=O)[C@H](CO)NC(=O)[C@H](CO)NC(=O)[C@H](CC(N)=O)NC(=O)[C@@H](NC(=O)[C@@H](NC(=O)[C@H](CC(N)=O)NC(=O)[C@H](Cc1ccccc1)NC(=O)[C@@H](N)C(C)C)C(C)C)C(C)C)C(=O)O` [Cluster 377_3D7] (H-VFNVVNSSI-OH): 11.6 µM.
For the molecule `CC[C@H](C)[C@H](NC(C)=O)C(=O)N[C@H](C(=O)N[C@@H](CCC(=O)O)C(=O)N[C@@H](Cc1ccc(O)cc1)C(=O)N[C@@H](CC(C)C)C(=O)N[C@@H](CCCCN)C(=O)N[C@@H](CCCCN)C(=O)N[C@H](C(=O)N[C@@H](CCC(N)=O)C(=O)N[C@@H](CC(N)=O)C(=O)N[C@@H](CO)C(=O)N[C@@H](CC(C)C)C(=O)N[C@@H](CO)C(=O)N[C@H](C(=O)N[C@@H](CCC(=O)O)C(=O)N[C@@H](Cc1c[nH]c2ccccc12)C(=O)N[C@@H](CO)C(=O)N1CCC[C@H]1C(=O)N[C@@H](CS)C(=O)N[C@@H](CO)C(N)=O)[C@@H](C)O)[C@@H](C)CC)[C@@H](C)O` [ICS2] (Ac-ITEYLKKIQNSLSTEWSPCS-NH2), the IC50 on HLA-DRB1*0101 stood at 83.9 µM. In addition, at HLA-DRB1*0401, the IC50 came out at 0.377 µM. Moreover, at HLA-DRB1*0701, the IC50 was 20 µM. On HLA-DRB1*0801, the IC50 was 4.76 µM. The IC50 on HLA-DRB1*1101 is 43.7 µM. The molecule also returned an IC50 at HLA-DRB1*1301 of 73.2 µM. The molecule also registered an IC50 on HLA-DRB1*1501 of 8.47 µM. Further, in experiment [1] (DR1 donors N=5, ICCS after 14-day co-culture), the “Percentage of donors demonstrating IFN-γ responses, DR1” value was found to be 40%. For the same molecule, in [1] (DR1 donors N=5, ICCS), the “Percentage of donors demonstrating IL-2 responses, DR1” value was determined as 40%; the “Percentage of donors demonstrating IL-4 responses, DR1” value was 0%; the “Percentage of donors demonstrating IL-10 responses, DR1” value is reported as 0%; the “Percentage of donors demonstrating TNF-α responses, DR1” value came out at 40%. Moreover, the “Percentage of donors demonstrating IFN-γ responses, DR3” value in experiment [1] (DR3 donors N=6, ICCS after 14-day co-culture) came to 33%. Further, in [1] (DR3 donors N=6, ICCS), the “Percentage of donors demonstrating IL-2 responses, DR3” value stood at 33%; the “Percentage of donors demonstrating IL-4 responses, DR3” value was determined as 33%; the “Percentage of donors demonstrating IL-10 responses, DR3” value came to 33%; the “Percentage of donors demonstrating TNF-α responses, DR3” value worked out at 17%. For the same molecule, the “Percentage of donors demonstrating IFN-γ responses, DR4” value in experiment [1] (DR4 donors N=10, ICCS after 14-day co-culture) worked out at 40%. Moreover, in experiment [1] (DR4 donors N=10, ICCS), the “Percentage of donors demonstrating IL-2 responses, DR4” value came out at 20%; the “Percentage of donors demonstrating IL-4 responses, DR4” value is given as 10%; the “Percentage of donors demonstrating IL-10 responses, DR4” value is reported as 0%; the “Percentage of donors demonstrating TNF-α responses, DR4” value was 50%. Moreover, the “Percentage of donors demonstrating IFN-γ responses, DR7” value in experiment [1] (DR7 donors N=4, ICCS after 14-day co-culture) came out at 50%. Also, in experiment [1] (DR7 donors N=4, ICCS), the “Percentage of donors demonstrating IL-2 responses, DR7” value was 0%; the “Percentage of donors demonstrating IL-4 responses, DR7” value was found to be 0%; the “Percentage of donors demonstrating IL-10 responses, DR7” value stood at 0%; the “Percentage of donors demonstrating TNF-α responses, DR7” value worked out at 25%. In [1] (DR8 donors N=4, ICCS after 14-day co-culture), the “Percentage of donors demonstrating IFN-γ responses, DR8” value stood at 50%. Also, in experiment [1] (DR8 donors N=4, ICCS), the “Percentage of donors demonstrating IL-2 responses, DR8” value was 25%; the “Percentage of donors demonstrating IL-4 responses, DR8” value came to 0%; the “Percentage of donors demonstrating IL-10 responses, DR8” value is listed as 25%; the “Percentage of donors demonstrating TNF-α responses, DR8” value stood at 50%. Also, the “Percentage of donors demonstrating IFN-γ responses, DR9” value in [1] (DR9 donors N=4, ICCS after 14-day co-culture) amounted to 0%. Further, in [1] (DR9 donors N=4, ICCS), the “Percentage of donors demonstrating IL-2 responses, DR9” value was found to be 25%; the “Percentage of donors demonstrating IL-4 responses, DR9” value was determined as 0%; the “Percentage of donors demonstrating IL-10 responses, DR9” value was 0%; the “Percentage of donors demonstrating TNF-α responses, DR9” value turned out to be 25%. In addition, the “Percentage of donors demonstrating IFN-γ responses, DR11” value in experiment [1] (DR11 donors N=4, ICCS after 14-day co-culture) was determined as 25%. Moreover, in [1] (DR11 donors N=4, ICCS), the “Percentage of donors demonstrating IL-2 responses, DR11” value was determined as 25%; the “Percentage of donors demonstrating IL-4 responses, DR11” value is reported as 0%; the “Percentage of donors demonstrating IL-10 responses, DR11” value is 0%; the “Percentage of donors demonstrating TNF-α responses, DR11” value is 50%. In addition, in experiment [1] (DR13 donors N=7, ICCS after 14-day co-culture), the “Percentage of donors demonstrating IFN-γ responses, DR13” value is reported as 57%. Also, in experiment [1] (DR13 donors N=7, ICCS), the “Percentage of donors demonstrating IL-2 responses, DR13” value was found to be 29%; the “Percentage of donors demonstrating IL-4 responses, DR13” value is on record as 14%; the “Percentage of donors demonstrating IL-10 responses, DR13” value is given as 29%; the “Percentage of donors demonstrating TNF-α responses, DR13” value is 71%. In [1] (DR15 donors N=7, ICCS after 14-day co-culture), the “Percentage of donors demonstrating IFN-γ responses, DR15” value worked out at 43%. In experiment [1] (DR15 donors N=7, ICCS), the “Percentage of donors demonstrating IL-2 responses, DR15” value amounted to 14%; the “Percentage of donors demonstrating IL-4 responses, DR15” value was found to be 0%; the “Percentage of donors demonstrating IL-10 responses, DR15” value was found to be 14%; the “Percentage of donors demonstrating TNF-α responses, DR15” value worked out at 29%.

Usually IC50 stands for the concentration needed to halve the response being measured. Low values mean greater potency in that assay, high ones weaker potency in that assay.
